Like-named read-outs stand apart in the source and are kept apart here.
Experiments:
[1] = Example 11: hydroformylation of propylene; conditions: 133 °C.
Procedure: Reaction Conditions: 1000 psig Total pressure, CO/H2 (50/50) mixture), 60 ml benzene as solvent, 0.30-0.45 moles propylene, 0.5 mmoles catalyst (based on Rh).

[2] = Table III: effect of cocatalyst on carbonylation of methanol to methyl acetate
[3] = Example 7: effect of cocatalyst on production of methyl acetate from CH3 OH; conditions: 175° C.
[4] = Example 8 / Table II: effect of catalyst on carbonylation of methanol to methyl acetate; conditions: CH3 I 8.0 mmole, 175° C., 1000 psi; for % Selectivity: additional product dimethyl ether
[5] = Procedure: This conversion is run at elevated pressures, preferably from 1,500 to 3,000 psi. Reaction temperatures will range from 50° C. to 200° C., with a range of 100° C. to 150° C. preferred. Ratio of H2 to CO used will vary with reaction conditions; preferably a 1 to 1 ratio is maintained. The catalyst concentration will range from 0.01 to 20% based on the weight feed, with 0.05 to 10 % preferred.
30 ml. of hexene-1, 20 ml. of benzene, and 0.3 gm. […] The bomb was heated to 140° C. and held until the reaction was complete.

[6] = cocatalyst 8.0 mmole, 175° C., 1000 psi, CH3 I 18 hr, CH3 CH2 I 19 hr, C6 H5 I 90 hr
[7] = cocatalyst 8.0 mmole, 1000 psi CO, CH3 I 18 hours, CH3 CH2 I 19 hours, C6 H5 I 90 hours
[8] = cocatalyst 8.0 mmole, 3.25 hr, 175° C., 4000 psi CO
[9] = cocatalyst 16.0 mmole, 4.25 hr, 175° C., 4000 psi CO
[10] = catalyst 1.0 mmole, 18-21 hours
[11] = catalyst 2.0 mmole, 16-19 hours (Co(C5 H7 O2)3: 67)
[12] = cocatalyst 4.0 mmole, 4000 psi CO, 4 hours

O=[C]=[Rh]([Cl])([PH](c1ccccc1)(c1ccccc1)c1ccccc1)[PH](c1ccccc1)(c1ccccc1)c1ccccc1 [((C6 H5)3 P)2 Rh(CO)Cl]
(%) n-C4 H8 O (percent straight chain isomer) ([1]; 1000 psig CO/H2 50/50): 56% | k (pseudo 1st order reaction rate constant) ([1]; 1000 psig CO/H2 50/50): 0.0744 min⁻¹ | t1/2 ([1]; t1/2 = ln 2/k): 9.32 min

Ic1ccccc1 [C6 H5 I]
% Conversion to Methyl Acetate [2, 6]: 25% | % Selectivity to Methyl Acetate [2, 6]: 52% | methyl acetate produced (head is a drawing) [3, 7]: 22.3 mL

CBr [CH3 Br]
promotional effect as cocatalyst [2]: inventive

CCI [CH3 CH2 I]
% Conversion to Methyl Acetate [2, 6]: 20% | % Selectivity to Methyl Acetate [2, 6]: 85% | methyl acetate produced (head is a drawing) [3, 7]: 17.5 mL

CI [CH3 I, methyl iodide]
% Conversion to Methyl Acetate [2, 6]: 24% | % Selectivity to Methyl Acetate [2, 6]: 85% | % Conversion to Methyl Acetate [2, 8]: 29% | % Selectivity to Methyl Acetate [2, 8]: 97% | % Conversion to Methyl Acetate [2, 9]: 25% | % Selectivity to Methyl Acetate [2, 9]: 74% | methyl acetate produced (head is a drawing) [3, 7]: 21.4 mL | methyl acetate produced (head is a drawing) ([3]; cocatalyst 8.0 mmole, 4000 psi CO, 4 hours): 29.6 mL | methyl acetate produced (head is a drawing) ([3]; cocatalyst 16.0 mmole, 4000 psi CO, 4 hours): 19.8 mL

[C-]#[O+].[C-]#[O+].[C-]#[O+].[C-]#[O+].[C-]#[O+].[C-]#[O+].[C-]#[O+].[C-]#[O+].[Co].[Co] [Co2 (CO)8]
% Conversion [4, 10]: 3.5% | % Selectivity [4, 10]: 6.4%

CC(=O)[CH-]C(C)=O.CC(=O)[CH-]C(C)=O.CC(=O)[CH-]C(C)=O.[Co+3] [Co(C5 H7 O2)3]
% Conversion [4, 11]: 16% | % Selectivity [4, 11]: 23%

II [Example I2, iodine]
methyl acetate produced (head is a drawing) ([3]; cocatalyst 2.0 mmole, 4000 psi CO, 4 hours): 5.2 mL

I [HI, hydrogen iodide]
% Conversion to Methyl Acetate [2]: 8 | % Selectivity to Methyl Acetate [2]: 47 | methyl acetate produced (head is a drawing) [3, 12]: 6.6 mL

[I-].[Li+] [LiI]
% Conversion to Methyl Acetate [2]: 0.6 | % Selectivity to Methyl Acetate [2]: 100 | methyl acetate produced (head is a drawing) [3, 12]: 1 mL

tetrakis tetrahydrofuran adduct of a magnesium-dicobalt hexacarbonyl bismethyldiphenylphosphine complex [[C4 H8 O]4 Mg[Co(CO)3 PCH3 (C6 H5)2]2]
hexene-1 converted to C7 aldehydes and C7 alcohols ([5]; 1500 psi, H2 :CO 1:1, 140° C.): 99% | reacted product that was an aldehyde ([5]; 1500 psi, H2 :CO 1:1, 140° C.): 87% | conversion of 1-hexene to heptaldehydes ([5]; description): > 99% | selectivity in conversion of 1-hexene to heptaldehydes ([5]; description): 87%
